Results on nine molecules are retold here after patent publication US4231946A, “14,15-Methylene derivatives of the estrane series and methods for preparing same” (VEB Jenapharm, priority 1978, dated 1980).

Structures are written as SMILES. Where two headings read alike, the source gives them in different places.

The subject of test [1] is mice. The test can be described thus: Contraceptive activity in mice, single application on 1st day of gestation. The format is in vivo, mouse. The following applies: for Contraceptive activities related to IHE1 (ranking in words): among the other compounds of Table 6; for THE, % after single application of 10 mg/kg of body-wt. on the 1st day of gestation p.o.: mice, 10 mg/kg p.o. On the procedure:
(§1) Gestation and nidation inhibition expressed in % were used as parameters for antifertility effects. GHE1 (gestation inhibitory effect) and IHE1 (nidation inhibitory effect) were related to the inhibition of the total of gestations or nidations, GHE2 and IHE2 were related to the inhibition of normal gestations or nidations within each group. […] GHE1, GHE2, IHE1 and IHE2 were calculated using the following formulae: [formula] n=number of females inseminated in each group v=test group
(§2) f=average number (x) of all implantations (IHE1) and of normal implantations (IHE2) p. female inseminated within a group, respectively.
(§3) For GHE1 and GHE2 the ED (effective doses) for the HE (inhibitory effect) 0%, 50%, and 95% as far as possible were determined by means of the probit analysis. The ED50 for IHE1 and IHE2 were determined graphically.
(§4) Uterine and contraceptive activities produced by selected
(§5) 14,15-methylene-17-ol-estratrienes in mice

The test system of test [2] is mice (uterine fresh weight). The test can be described thus: Uterine activity in mice (dose for doubling uterine fresh weight). The settings on record: for Uterine response / uterine activity (in words): Table 6; for Total dose for doubling uterine fresh weight: p.o. The format is in vivo, mouse.
Source text: as §4, §5

Test [3] relates to inseminated rats. The test can be described thus: Antinidation / Nidation Inhibition Test in inseminated rats treated on the 1st day of gestation. The format is in vivo, rat. The following applies: for ED50 / ED5 / ED95: Rattus norvegicus, po, STS 593 from trial No. 2; for Female rats pregnant of n, normal / Female rats pregnant of n, total / GHE1 / GHE2 / IHE1 / IHE2 / Implantations per female (-x), normal / Implantations per female (-x), total: mestranol 0.2 mg/kg p.o.
Source text: The favorable biological properties of the named compounds of the process according to the invention are to be further illustrated and described in the example of 3-methoxy-14β-15β-methylene-estra-1,3,5(10)-triene-17β-ol (test designation STS 593).
as §1
k=control group (sesame oil)
x=number of all gestations (GHE1) and of normal gestations (GHE2) p. group, respectively
as §2
The comparison of the relative incidence of gestations was performed by the Ryan test, the comparison of the number of implantations by the Dunn test.
as §3

Test [4] concerns infantile rabbit uteri. The test can be described thus: McPhail test, progestagenic and antiprogestagenic activities in infantile rabbit uteri. The format is in vivo. The following applies: progesterone 4 mg/animal s.c. alone, total dose over 4 days; n=6. An excerpt: The HE of 97.3% is significant (Table 5).
Progestagenic and antiprogestagenic activities of STS 593
in infantile rabbit uteri as shown by the McPhail test

A short description of test [5]: General statement on antifertility effects and separation from uterine, estrogenic and antigonadotrophic activities. The format is in vivo.
The subject of test [6] is infantile female Wistar rats. The test can be described thus: Uterine activity in infantile female Wistar rats. The following applies: n=10. Type of test: in vivo, Wistar rat. An excerpt: STS 593 was weaker than ethynylestradiol by a factor of 9 in its estrogenic properties as shown by the Allen-Doisy test in ovariectomized mice. The compound was only 7% as active as the standard mestranol in producing a uterine response in infantile rats (Table 3), whereas the antiestrogenic properties exceeded those of clomiphene citrate by a factor of 1.4.
Comparison of uterine activity in infantile female
Wistar rats produced by STS 593 and mestranol

Test [7] has as its system rats (testicular mass). The test can be described thus: Antigonadotrophic activity (testicular mass) in rats. Type of test: in vivo, rat. The settings on record: Rattus norvegicus, 120 h; rats; read-out: Effective dose for the HE50, antigonadotrophic. On the procedure: The effective dose for the HE50 was close to 0.65 mg/kg of body-wt./5 d, while mestranol has the same effect at a dose as low as 0.15 mg/kg of body-wt./5 d.

[8] abbreviates: determined graphically, read-out: ED 50 for IHE1.
[9] abbreviates: determined graphically, read-out: ED 50 for IHE2.
[10] abbreviates: probit analysis, read-out: ED 05 for GHE1.
Setting [11] is: probit analysis, read-out: ED 05 for GHE2.
Setting [12] is: probit analysis, read-out: ED 50 for GHE1.
Setting [13] is: probit analysis, read-out: ED 50 for GHE2.
Where [14] appears, read: probit analysis, read-out: ED 95 for GHE1.
Setting [15] is: probit analysis, read-out: ED 95 for GHE2.

Consider `COc1ccc2c(c1)CC[C@@H]1[C@@H]2CC[C@]2(C)[C@@H](O)C[C@@H]3C[C@]312` [STS 651, 3-methoxy-14α,15α-methylene-estra-1,3,5(10)-triene-17β-ol], for which, in test [1], the “Contraceptive activities related to IHE1 (ranking in words)” value is “strongest contraceptive activities”. In addition, the “THE, % after single application of 10 mg/kg of body-wt. on the 1st day of gestation p.o.” value (“THE, % … of gestation p.o.” below) in test [1] is listed as 84.4%. Moreover, the “Uterine response / uterine activity (in words)” value in test [2] is reported as “strongest uterine response”. Besides, the “Total dose for doubling uterine fresh weight” value (shortened to “Total dose”) in test [2] was determined as 0.2 μg/animal. Further, the ED50 in test [3] (setting [8]) is 0.107 mg/kg; in test [3] (setting [9]), 0.096 mg/kg; in test [3] (setting [12]), 0.183 mg/kg; in test [3] (setting [13]), 0.11 mg/kg. In addition, the ED5 in test [3] (setting [10]) worked out at 0.059 mg/kg; in test [3] (setting [11]), 0.043 mg/kg. Besides, the ED95 amounted to 0.583 mg/kg in test [3] (setting [14]) and 0.265 mg/kg in test [3] (setting [15]).

For `CC(=O)[C@H]1CC[C@H]2[C@@H]3CCC4=CC(=O)CC[C@]4(C)[C@H]3CC[C@]12C` [Progesterone, reference compound], the “McPhail index (-x)” value in test [4] stood at 3.0.

For `COc1ccc2c(c1)CC[C@@H]1[C@@H]2CC[C@]2(C)[C@H](O)C[C@@H]3C[C@]312` [STS 652, 3-methoxy-14α,15α-methylene-estra-1,3,5(10)-triene-17α-ol], in test [5] (in vivo), the “Separation of desirable contraceptive and undesirable uterine and antigonadotrophic activities” value is listed as “very favorable separation”. Moreover, in test [1], the “THE, % … of gestation p.o.” value amounted to 60.0%. In test [2], the “Uterine response / uterine activity (in words)” value was “distinctly weaker uterine activities” and the “Total dose” value came to 3.0 μg/animal.

Consider `C#C[C@]1(O)CC[C@H]2[C@@H]3CCc4cc(OC)ccc4[C@H]3CC[C@@]21C` [Mestranol, reference compound], for which the “Uterine weight (-x)” value in test [6] (mestranol total dose 0.6 per animal over 3 days p.o.) stood at 70.11 mg; in test [6] (mestranol total dose 6.0 per animal over 3 days p.o.), 95.45 mg. Besides, the ED50 in test [7] was 0.15 mg/kg; in test [3] (setting [8]) it was 0.17 mg/kg; in test [3] (setting [9]), 0.15 mg/kg; in test [3] (setting [12]) it was 0.34 mg/kg; in test [3] (setting [13]) it was 0.163 mg/kg. In addition, the “Female rats pregnant of n, normal” value in test [3] (1st trial 1975, n=12) was determined as 1; in test [3] (2nd trial 1978, n=10), 0. In addition, the “Female rats pregnant of n, total” value in test [3] (1st trial 1975, n=12) was 11; in test [3] (2nd trial 1978, n=10) it was 6. The GHE1 is recorded as 8.3% in test [3] (1st trial 1975, n=12) and 40% in test [3] (2nd trial 1978, n=10). Moreover, the GHE2 in test [3] (1st trial 1975, n=12) turned out to be 91.7%; in test [3] (2nd trial 1978, n=10) it was 100%. The IHE1 in test [3] (1st trial 1975, n=12) is 45.3%; in test [3] (2nd trial 1978, n=10) it was 70.8%. Moreover, the IHE2 in test [3] (1st trial 1975, n=12) came out at 98.7%; in test [3] (2nd trial 1978, n=10), 100%. The “Implantations per female (-x), normal” value in test [3] (1st trial 1975, n=12) worked out at 0.2; in test [3] (2nd trial 1978, n=10) it was 0. In addition, the “Implantations per female (-x), total” value in test [3] (1st trial 1975, n=12) was 6.8; in test [3] (2nd trial 1978, n=10), 3.8. In addition, the ED5 was 0.097 mg/kg in test [3] (setting [10]) and 0.065 mg/kg in test [3] (setting [11]). The ED95 in test [3] (setting [14]) came to 1.11 mg/kg; in test [3] (setting [15]), 0.387 mg/kg.

Regarding `C#C[C@]1(O)CC[C@H]2[C@@H]3CCc4cc(O)ccc4[C@H]3CC[C@@]21C` [Ethynylestradiol, reference compound], the ED50 in test [3] (setting [8]) was 0.37 mg/kg; in test [3] (setting [9]) it was below 0.21 mg/kg; in test [3] (setting [12]), at most 0.45 mg/kg; in test [3] (setting [13]), below 0.3 mg/kg.

Take `COc1ccc2c(c1)CC[C@@H]1[C@@H]2CC[C@]2(C)[C@H](O)C[C@H]3C[C@@]312` [STS 592, 3-methoxy-14β-15β-methylene-estra-1,3,5(10)-triene-17α-ol]: in test [5] (mice, among the compounds of Table 6), the “Separation of desirable contraceptive and undesirable estrogenic effects” value is listed as “most favorable separation”. Also, the “THE, % … of gestation p.o.” value in test [1] was 35.0%. Besides, in test [2], the “Uterine response / uterine activity (in words)” value is “distinctly weaker uterine activities” and the “Total dose” value is 7.0 μg/animal.

`COc1ccc2c(c1)CC[C@@H]1[C@@H]2CC[C@@]2(C)[C@@]13C[C@@H]3C[C@]2(C)O` [STS 681, 3-methoxy-17α-methyl-14β,15β-methylene-estra-1,3,5(10)-triene-17β-ol]: in test [5] (in vivo), the “Antifertility effects (in words)” value is “strong antifertility effects”; the “Separation of desirable contraceptive and undesirable uterine and antigonadotrophic activities” value is listed as “very favorable separation”. Also, in test [1], the “Contraceptive activities related to IHE1 (ranking in words)” value was “strongest contraceptive activities” and the “THE, % … of gestation p.o.” value turned out to be 81.7%. Also, in test [2], the “Uterine response / uterine activity (in words)” value is “distinctly weaker uterine activities” and the “Total dose” value is recorded as 0.56 μg/animal.

As to `COc1ccc2c(c1)CC[C@@H]1[C@@H]2CC[C@]2(C)C(OC(=O)Nc3ccccc3)CC3C[C@@]312` (stereo partly drawn) [STS 595, 17phenylaminocarbonyloxy-14β,15methylene-estra-1,3,5(10)-triene-3-mehylether], the “Total dose” value in test [2] amounted to 100 μg/animal.

In the case of `COc1ccc2c(c1)CC[C@@H]1[C@@H]2CC[C@]2(C)C(OC(=O)Nc3ccccc3)CC3C[C@@]312` (stereo partly drawn) [STS 594, 17phenylaminocarbnoyloxy-14β,15methylene-estra-1,3,5(10)-triene-3-mehylether], the “Total dose” value in test [2] is given as 100 μg/animal.
